Results: PMC9299836 (eLife, 2022)
“And” between values parts separate entries of the source, which are not always exact repeats. Identical values can stand only once.

Columns and labels:
mGluR2 [1] = molecular target: mGluR2 (Mus musculus, UniProt Q14BI2, A548F); test: Live-cell FRET, azi-CRD (cysteine-rich domain) sensor in HEK293T cells; details: for Mean normalized FRET response, azi-CRD PAM DRC: glutamate + 0.5μM JNJ-42153605, maximal response normalized to 1mM glutamate
mGluR2 [2] = molecular target: T1, mGluR2 (Mus musculus, UniProt Q14BI2); test: Live-cell FRET, SNAP-m2 (VFT domain) inter-subunit sensor in HEK293T cells; details: for SNAP-m2 FRET response (PAM DRC) / SNAP-m2 FRET response (PAM DRC), Mean: Glutamate + 0.5μM JNJ-42153605; for SNAP-m2 FRET response (PAM DRC): individual cells, normalized to 1mM glutamate;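 as to all read-outs here: apparent FRET efficiency from whole-membrane ROIs of single cells, corrected for donor bleed-through and background, ΔFRET as treatment minus pretreatment signal, recorded at room temperature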
T1 sequence (Q14BI2 19-872): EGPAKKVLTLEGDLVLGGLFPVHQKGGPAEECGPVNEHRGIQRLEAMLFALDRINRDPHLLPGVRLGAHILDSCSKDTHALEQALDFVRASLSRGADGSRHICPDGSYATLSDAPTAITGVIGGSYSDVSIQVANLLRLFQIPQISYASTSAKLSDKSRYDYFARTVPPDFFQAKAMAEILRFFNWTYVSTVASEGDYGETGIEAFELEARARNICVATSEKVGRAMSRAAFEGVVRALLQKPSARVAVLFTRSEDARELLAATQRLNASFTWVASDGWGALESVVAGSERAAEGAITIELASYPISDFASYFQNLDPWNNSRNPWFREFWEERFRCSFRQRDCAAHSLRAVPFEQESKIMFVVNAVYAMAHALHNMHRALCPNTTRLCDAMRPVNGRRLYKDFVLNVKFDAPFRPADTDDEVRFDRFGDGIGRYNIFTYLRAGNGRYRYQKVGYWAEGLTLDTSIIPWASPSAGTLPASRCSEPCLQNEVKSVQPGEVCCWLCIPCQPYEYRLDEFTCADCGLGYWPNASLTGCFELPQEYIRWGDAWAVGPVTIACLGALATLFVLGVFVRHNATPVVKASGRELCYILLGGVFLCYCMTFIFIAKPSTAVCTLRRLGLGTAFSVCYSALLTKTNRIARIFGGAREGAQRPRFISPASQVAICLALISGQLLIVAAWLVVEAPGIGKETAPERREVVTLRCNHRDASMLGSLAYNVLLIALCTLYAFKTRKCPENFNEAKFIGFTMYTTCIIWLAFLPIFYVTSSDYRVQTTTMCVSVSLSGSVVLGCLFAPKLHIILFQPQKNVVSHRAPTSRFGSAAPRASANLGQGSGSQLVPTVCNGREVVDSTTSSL

mGluR2 [3] = molecular target: mGluR2 (Mus musculus, UniProt Q14BI2, INS715F); test: Live-cell FRET, azi-ECL2 (7TM domain, extracellular loop 2) sensor in HEK293T cells; details: for Mean normalized azi-ECL2 FRET response: glutamate + 0.5μM modulator, maximal response normalized to 1mM glutamate;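 as to all read-outs here: Cy3/Cy5 click-labeled sensor, whole-membrane ROIs per cell, apparent FRET after bleed-through correction, ΔFRET as treatment minus pre-treatment signal, at room temperature, at least three biological replicates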
Sequence of mGluR2 (Mus musculus, UniProt Q14BI2, INS715F) (Q14BI2 with tags, fused parts or gaps INS715F): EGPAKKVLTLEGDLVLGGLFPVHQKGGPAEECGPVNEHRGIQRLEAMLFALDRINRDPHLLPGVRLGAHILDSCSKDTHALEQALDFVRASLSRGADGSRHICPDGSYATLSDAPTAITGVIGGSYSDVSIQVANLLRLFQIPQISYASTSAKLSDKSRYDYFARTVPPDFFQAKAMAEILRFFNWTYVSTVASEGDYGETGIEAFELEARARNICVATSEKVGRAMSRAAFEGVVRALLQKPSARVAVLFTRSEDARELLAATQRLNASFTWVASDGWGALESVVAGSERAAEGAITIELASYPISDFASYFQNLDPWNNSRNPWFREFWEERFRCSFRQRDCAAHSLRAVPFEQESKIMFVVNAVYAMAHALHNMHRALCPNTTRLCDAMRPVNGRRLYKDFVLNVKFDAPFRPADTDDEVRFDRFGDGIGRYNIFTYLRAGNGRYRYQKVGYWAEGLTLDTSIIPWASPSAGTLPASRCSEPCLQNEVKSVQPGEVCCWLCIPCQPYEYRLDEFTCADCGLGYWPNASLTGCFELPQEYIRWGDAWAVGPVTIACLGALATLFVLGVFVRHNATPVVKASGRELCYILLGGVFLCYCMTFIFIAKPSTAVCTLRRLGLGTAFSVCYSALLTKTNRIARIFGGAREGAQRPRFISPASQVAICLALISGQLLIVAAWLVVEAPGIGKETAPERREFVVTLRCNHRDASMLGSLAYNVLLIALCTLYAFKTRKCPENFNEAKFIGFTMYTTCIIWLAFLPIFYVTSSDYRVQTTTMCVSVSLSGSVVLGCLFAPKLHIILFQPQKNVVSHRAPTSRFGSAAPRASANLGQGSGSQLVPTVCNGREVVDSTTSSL

mGluR2 [4] = molecular target: T1, mGluR2; test: Functional calcium imaging, SNAP-mGluR2 (no FLAG-tag) with chimeric G protein Gqo5 in HEK293T cells; format: cell-based; parameters: Full length mGluR2 construct with an amber codon (TAG) mutation of amino acid A548 (azi-CRD) or N-terminal SNAP-tag (SNAP-mGluR2); host or cells: HEK293T; details: modulator alone; precluded analysis of glutamate potency and efficacy
[5] = 0.5μM JNJ-42153605, ([1 mM glutamate + modulator] - [1 mM glutamate]) × 100

Sequence of mGluR2 (Mus musculus, UniProt Q14BI2, A548F) (Q14BI2 19-872 A548F): as the sequence (Q14BI2 19-872) above, with A530F counted along it

FC(F)(F)c1c(N2CCC(c3ccccc3)CC2)ccn2c(CC3CC3)nnc12 [JNJ-42153605, 3-cyclopropylmethyl-7-(4-phenylpiperidin-1-yl)-8-trifluoromethyl[1,2,4]triazolo[4,3-a]pyridine]
azi-CRD - ΔEfficacy, Mean ΔEfficacy (mGluR2 [1]; [5]): 43.306 | azi-CRD - ΔEfficacy, individual cell responses (mGluR2 [1]; 0.5μM JNJ-42153605, single cells): 82.2727 and 42.4779 and 50.5102 and 41.4773 and 23.5294 and 12.5265 and 26.2467 and 67.4074 | Hill slope of glutamate titration (mGluR2 [1]; azi-CRD sensor, + 0.5 μM modulator): 0.84 | Live-cell FRET max response normalized to 1mM glutamate (mGluR2 [1]; azi-CRD sensor, Glutamate + 0.5μM JNJ-42153605, individual values (N=8)): 1.235 and 1.125 and 1.262 and 1.674 and 1.823 and 1.425 and 1.5051 and 1.415 | Mean max response (normalized max ΔFRET) (mGluR2 [1]; azi-CRD, 1 mM glutamate + 0.5 μM modulator, normalized to 1 mM glutamate): 1.43 | Mean ΔPotency (mGluR2 [1]; azi-CRD, 0.5μM modulator, (([modulator + glutamate]EC50 – [glutamate] EC50)/[glutamate] EC50) × 100): -59.6016 | ΔPotency, individual cell (mGluR2 [1]; azi-CRD, 0.5μM modulator, calculated from individual cell responses): -88.5847 and -77.2559 and -86.9416 and -84.6067 and -90.4873 and -15.0698 and -44.7131 and -29.6276 and 9.8556 | Mean normalized FRET response, azi-CRD PAM DRC (mGluR2 [1]; log[Glutamate] (M) -3): 1.433 | Mean normalized FRET response, azi-CRD PAM DRC (mGluR2 [1]; log[Glutamate] (M) -4.1549): 1.38 | Mean normalized FRET response, azi-CRD PAM DRC (mGluR2 [1]; log[Glutamate] (M) -4.52288): 1.273 | Mean normalized FRET response, azi-CRD PAM DRC (mGluR2 [1]; log[Glutamate] (M) -5): 1.071 | Mean normalized FRET response, azi-CRD PAM DRC (mGluR2 [1]; log[Glutamate] (M) -5.39794): 0.8185 | Mean normalized FRET response, azi-CRD PAM DRC (mGluR2 [1]; log[Glutamate] (M) -5.82391): 0.5065 | Mean normalized FRET response, azi-CRD PAM DRC (mGluR2 [1]; log[Glutamate] (M) -6.52288): 0.2306 | Mean normalized FRET response, azi-CRD PAM DRC (mGluR2 [1]; log[Glutamate] (M) -7): 0.112 | Mean normalized FRET response, azi-CRD PAM DRC (mGluR2 [1]; log[Glutamate] (M) -7.30103): 0.06166 | Mean normalized FRET response, azi-CRD PAM DRC (mGluR2 [1]; log[Glutamate] (M) -7.69897): 0 | SNAP-m2 - ΔEfficacy, Mean ΔEfficacy (mGluR2 [2]; [5]): 1.081 | SNAP-m2 FRET response (PAM DRC) (mGluR2 [2]; log[Glutamate] (M) -3): -1.011 | SNAP-m2 FRET response (PAM DRC), Mean (mGluR2 [2]; log[Glutamate] (M) -3): -1.011 | SNAP-m2 FRET response (PAM DRC) (mGluR2 [2]; log[Glutamate] (M) -4.1549): -1.026 and -1.036 and -0.9975 and -0.9514 and -0.995 | SNAP-m2 FRET response (PAM DRC), Mean (mGluR2 [2]; log[Glutamate] (M) -4.1549): -1.001 | SNAP-m2 FRET response (PAM DRC) (mGluR2 [2]; log[Glutamate] (M) -4.52288): -1.0364 and -1.036 and -1.011 and -0.8324 and -0.8825 | SNAP-m2 FRET response (PAM DRC), Mean (mGluR2 [2]; log[Glutamate] (M) -4.52288): -0.9596 | SNAP-m2 FRET response (PAM DRC) (mGluR2 [2]; log[Glutamate] (M) -5): -1.011 (2×) and -0.9177 and -0.5203 and -0.5436 | SNAP-m2 FRET response (PAM DRC), Mean (mGluR2 [2]; log[Glutamate] (M) -5): -0.8006 | SNAP-m2 FRET response (PAM DRC) (mGluR2 [2]; log[Glutamate] (M) -5.39794): -0.9084 and -0.9097 and -0.7581 and -0.2676 and -0.3028 | SNAP-m2 FRET response (PAM DRC), Mean (mGluR2 [2]; log[Glutamate] (M) -5.39794): -0.6293 | SNAP-m2 FRET response (PAM DRC) (mGluR2 [2]; log[Glutamate] (M) -5.82391): -0.7293 and -0.6949 and -0.532 and -0.1338 and -0.1442 | SNAP-m2 FRET response (PAM DRC), Mean (mGluR2 [2]; log[Glutamate] (M) -5.82391): -0.4469 | SNAP-m2 FRET response (PAM DRC) (mGluR2 [2]; log[Glutamate] (M) -6): -0.07432 and -0.0721 | SNAP-m2 FRET response (PAM DRC), Mean (mGluR2 [2]; log[Glutamate] (M) -6): -0.07321 | SNAP-m2 FRET response (PAM DRC) (mGluR2 [2]; log[Glutamate] (M) -6.52288): -0.2853 and -0.2653 and -0.1596 and 0 and -0.02884 | SNAP-m2 FRET response (PAM DRC), Mean (mGluR2 [2]; log[Glutamate] (M) -6.52288): -0.1478 | SNAP-m2 FRET response (PAM DRC) (mGluR2 [2]; log[Glutamate] (M) -7): -0.1024 and -0.08845 and 0 (3×) | SNAP-m2 FRET response (PAM DRC), Mean (mGluR2 [2]; log[Glutamate] (M) -7): -0.03816 | SNAP-m2 FRET response (PAM DRC) (mGluR2 [2]; log[Glutamate] (M) -7.30103): -0.03839 and 0 (4×) | SNAP-m2 FRET response (PAM DRC), Mean (mGluR2 [2]; log[Glutamate] (M) -7.30103): -0.00768 | SNAP-m2 FRET response (PAM DRC) (mGluR2 [2]; log[Glutamate] (M) -7.69897): 0 | SNAP-m2 FRET response (PAM DRC), Mean (mGluR2 [2]; log[Glutamate] (M) -7.69897): 0 | Mean max response (normalized max ΔFRET) (mGluR2 [2]; SNAP-m2, 1 mM glutamate + 0.5 μM modulator, normalized to 1 mM glutamate): 1.01 | Mean ΔPotency (mGluR2 [2]; SNAP-m2, 0.5μM modulator, (([modulator + glutamate]EC50 – [glutamate] EC50)/[glutamate] EC50) × 100): -64.9475 | Mean ΔEfficacy (mGluR2 [2]; SNAP-m2, 0.5μM modulator, ([1 mM glutamate + modulator] - [1 mM glutamate]) × 100): 1.081 | Hill slope of glutamate titration (mGluR2 [2]; SNAP-m2 sensor, + 0.5 μM modulator): –0.95 | azi-ECL2 - ΔEfficacy, Mean ΔEfficacy (mGluR2 [3]; [5]): -1.362 | Mean ΔPotency (mGluR2 [3]; 0.5μM modulator, (([modulator + glutamate]EC50 – [glutamate] EC50)/[glutamate] EC50) × 100): -56.3563 | ΔPotency, individual cell responses (mGluR2 [3]; 0.5μM modulator, single cells, (([modulator + glutamate]EC50 – [glutamate] EC50)/[glutamate] EC50) × 100): -56.3361 and -69.1679 and -73.0287 and -52.3819 and -40.5992 and -58.985 and -50.7357 and -45.7659 and -53.2747 and -65.0568 and -56.2788 and -59.6269 and -60.7335 and -44.1256 and -58.5158 and -54.4905 and -58.9548 | ΔEfficacy, individual cell responses (mGluR2 [3]; 0.5μM modulator, single cells, ([1 mM glutamate + modulator] - [1 mM glutamate]) × 100): -2.941 and 0.7843 and -9.091 and 0.4875 and -2.828 and 1.987 and -3.4754 and -3.284 and -3.415 and -12.5737 and -5.278 and 16.4947 and 5.4247 | Change in glutamate efficacy by FRET signal at ECL2 (mGluR2 [3]; azi-ECL2, 0.5 μM modulator): no change in efficacy | Mean max response (normalized max ΔFRET) (mGluR2 [3]; azi-ECL2, 1 mM glutamate + 0.5 μM modulator, normalized to 1 mM glutamate): 0.99 | Hill slope of glutamate titration (mGluR2 [3]; azi-ECL2 sensor, + 0.5 μM modulator): 0.97 | Mean normalized azi-ECL2 FRET response (mGluR2 [3]; log[Glutamate] (M) -3): 0.9864 | Mean normalized azi-ECL2 FRET response (mGluR2 [3]; log[Glutamate] (M) -4.1549): 0.9409 | Mean normalized azi-ECL2 FRET response (mGluR2 [3]; log[Glutamate] (M) -4.52288): 0.8615 | Mean normalized azi-ECL2 FRET response (mGluR2 [3]; log[Glutamate] (M) -5): 0.7669 | Mean normalized azi-ECL2 FRET response (mGluR2 [3]; log[Glutamate] (M) -5.39794): 0.6334 | Mean normalized azi-ECL2 FRET response (mGluR2 [3]; log[Glutamate] (M) -5.82391): 0.3885 | Mean normalized azi-ECL2 FRET response (mGluR2 [3]; log[Glutamate] (M) -6.52288): 0.08595 | Mean normalized azi-ECL2 FRET response (mGluR2 [3]; log[Glutamate] (M) -7): 0.01271 | Mean normalized azi-ECL2 FRET response (mGluR2 [3]; log[Glutamate] (M) -7.30103): 0 | Mean normalized azi-ECL2 FRET response (mGluR2 [3]; log[Glutamate] (M) -7.69897): 0 | Effect of modulator itself on intracellular calcium flux (mGluR2 [4]): Direct activation of mGluR2
